System: OVCAR-8 complex spheroid, growth inhibition
Assay: Anticancer human tumor OVCAR-8 cell line growth inhibition [Asc];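 further: spheroids exposed to agents for 7 days before readout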;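 on viability, T/C: percent viability relative to DMSO vehicle wells taken as 100%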
Settings: for IC50: curve of first compound; for viability, T/C: stronger effect = lower value
How it was run: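 Concentration series start at each agent's clinical Cmax, or at 10 microM when none is established, and drop in half-log steps; agents are applied alone or together to complex spheroids built with HUVEC and hMSC.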

With `Cc1nc(N2CCC3(CC2)COC(C)C3N)c(CO)nc1Sc1ccnc(N)c1Cl` (centres undefined) + CNC(C)C(=O)NC1CN(S(=O)(=O)c2cccc(S(=O)(=O)N3CCC4CCC(C(=O)NC(c5ccccc5)c5ccccc5)N4C(=O)C(NC(=O)C(C)NC)C3)c2)CCC2CCC(C(=O)NC(c3ccccc3)c3ccccc3)N2C1=O the IC50 (second compound 0.00316 µM) was > 3 µM, the IC50 (second compound 0.01 µM) was > 3 µM and the IC50 (second compound 0.0316 µM) was > 3 µM. For the same compound, the IC50 (second compound 0.1 µM) was > 3 µM, the IC50 (second compound 0.316 µM) was > 3 µM and the IC50 (second compound 1 µM) was > 3 µM. It also gave a viability, T/C (second compound 0.00316 µM, first compound 0.00949 µM) of 130%, a viability, T/C (second compound 0.00316 µM, first compound 0.03 µM) of 136% and a viability, T/C (second compound 0.00316 µM, first compound 0.0949 µM) of 208%. For the same compound, the viability, T/C (second compound 0.00316 µM, first compound 0.3 µM) was 235%, the viability, T/C (second compound 0.00316 µM, first compound 0.949 µM) was 260% and the viability, T/C (second compound 0.00316 µM, first compound 3 µM) was 245%. For the same compound, the viability, T/C (second compound 0.01 µM, first compound 0.00949 µM) was 111%, the viability, T/C (second compound 0.01 µM, first compound 0.03 µM) was 130% and the viability, T/C (second compound 0.01 µM, first compound 0.0949 µM) was 163%. The viability, T/C (second compound 0.01 µM, first compound 0.3 µM) was 251%, the viability, T/C (second compound 0.01 µM, first compound 0.949 µM) was 263% and the viability, T/C (second compound 0.01 µM, first compound 3 µM) was 237%. The viability, T/C (second compound 0.0316 µM, first compound 0.00949 µM) was 93%, the viability, T/C (second compound 0.0316 µM, first compound 0.03 µM) was 130% and the viability, T/C (second compound 0.0316 µM, first compound 0.0949 µM) was 166%. The viability, T/C (second compound 0.0316 µM, first compound 0.3 µM) was 205%, the viability, T/C (second compound 0.0316 µM, first compound 0.949 µM) was 248% and the viability, T/C (second compound 0.0316 µM, first compound 3 µM) was 224%. For the same compound, the viability, T/C (second compound 0.1 µM, first compound 0.00949 µM) was 86.7%, the viability, T/C (second compound 0.1 µM, first compound 0.03 µM) was 111% and the viability, T/C (second compound 0.1 µM, first compound 0.0949 µM) was 155%. The viability, T/C (second compound 0.1 µM, first compound 0.3 µM) was 166%, the viability, T/C (second compound 0.1 µM, first compound 0.949 µM) was 208% and the viability, T/C (second compound 0.1 µM, first compound 3 µM) was 171%. The viability, T/C (second compound 0.316 µM, first compound 0.00949 µM) was 70.7%, the viability, T/C (second compound 0.316 µM, first compound 0.03 µM) was 82.6% and the viability, T/C (second compound 0.316 µM, first compound 0.0949 µM) was 109%. It also gave a viability, T/C (second compound 0.316 µM, first compound 0.3 µM) of 169%, a viability, T/C (second compound 0.316 µM, first compound 0.949 µM) of 140% and a viability, T/C (second compound 0.316 µM, first compound 3 µM) of 110%. For the same compound, the viability, T/C (second compound 1 µM, first compound 0.00949 µM) was 81.5%, the viability, T/C (second compound 1 µM, first compound 0.03 µM) was 95.1% and the viability, T/C (second compound 1 µM, first compound 0.0949 µM) was 119%. The viability, T/C (second compound 1 µM, first compound 0.3 µM) was 123%, the viability, T/C (second compound 1 µM, first compound 0.949 µM) was 116% and the viability, T/C (second compound 1 µM, first compound 3 µM) was 75.1%.
With `O=C(c1cc(Cc2n[nH]c(=O)c3ccccc23)ccc1F)N1CCN(C(=O)C2CC2)CC1` + Cc1c(S(C)(=O)=O)c(-c2cc(F)cc(N3CCN(c4ccc(NS(=O)(=O)c5ccc(NC(CCN6CCC(C(=O)OCCCP(=O)(O)O)CC6)CSc6ccccc6)c(S(=O)(=O)C(F)(F)F)c5)cc4)CC3)c2)c(-c2ccc(Cl)cc2)n1C(C)C the IC50 (second compound 0.0316 µM) was > 10 µM, the IC50 (second compound 0.1 µM) was > 10 µM and the IC50 (second compound 0.316 µM) was > 10 µM. For the same compound, the IC50 (second compound 1 µM) was > 10 µM, the IC50 (second compound 3.16 µM) was > 10 µM and the IC50 (second compound 10 µM) was > 10 µM. The viability, T/C (second compound 0.0316 µM, first compound 0.0316 µM) was 95.1%, the viability, T/C (second compound 0.0316 µM, first compound 0.1 µM) was 97% and the viability, T/C (second compound 0.0316 µM, first compound 0.316 µM) was 88.2%. It also gave a viability, T/C (second compound 0.0316 µM, first compound 1 µM) of 102%, a viability, T/C (second compound 0.0316 µM, first compound 3.16 µM) of 137% and a viability, T/C (second compound 0.0316 µM, first compound 10 µM) of 114%. For the same compound, the viability, T/C (second compound 0.1 µM, first compound 0.0316 µM) was 100%, the viability, T/C (second compound 0.1 µM, first compound 0.1 µM) was 87.9% and the viability, T/C (second compound 0.1 µM, first compound 0.316 µM) was 92.5%. The viability, T/C (second compound 0.1 µM, first compound 1 µM) was 98.2%, the viability, T/C (second compound 0.1 µM, first compound 3.16 µM) was 115% and the viability, T/C (second compound 0.1 µM, first compound 10 µM) was 137%. The viability, T/C (second compound 0.316 µM, first compound 0.0316 µM) was 103%, the viability, T/C (second compound 0.316 µM, first compound 0.1 µM) was 101% and the viability, T/C (second compound 0.316 µM, first compound 0.316 µM) was 105%. For the same compound, the viability, T/C (second compound 0.316 µM, first compound 1 µM) was 110%, the viability, T/C (second compound 0.316 µM, first compound 3.16 µM) was 161% and the viability, T/C (second compound 0.316 µM, first compound 10 µM) was 130%. It also gave a viability, T/C (second compound 1 µM, first compound 0.0316 µM) of 132%, a viability, T/C (second compound 1 µM, first compound 0.1 µM) of 96.7% and a viability, T/C (second compound 1 µM, first compound 0.316 µM) of 120%. It also gave a viability, T/C (second compound 1 µM, first compound 1 µM) of 120%, a viability, T/C (second compound 1 µM, first compound 3.16 µM) of 152% and a viability, T/C (second compound 1 µM, first compound 10 µM) of 109%. It also gave a viability, T/C (second compound 3.16 µM, first compound 0.0316 µM) of 134%, a viability, T/C (second compound 3.16 µM, first compound 0.1 µM) of 106% and a viability, T/C (second compound 3.16 µM, first compound 0.316 µM) of 100%. The viability, T/C (second compound 3.16 µM, first compound 1 µM) was 104%, the viability, T/C (second compound 3.16 µM, first compound 3.16 µM) was 140% and the viability, T/C (second compound 3.16 µM, first compound 10 µM) was 107%. For the same compound, the viability, T/C (second compound 10 µM, first compound 0.0316 µM) was 125%, the viability, T/C (second compound 10 µM, first compound 0.1 µM) was 107% and the viability, T/C (second compound 10 µM, first compound 0.316 µM) was 112%. It also gave a viability, T/C (second compound 10 µM, first compound 1 µM) of 124%, a viability, T/C (second compound 10 µM, first compound 3.16 µM) of 159% and a viability, T/C (second compound 10 µM, first compound 10 µM) of 98.9%.
